These results are taken from patent US20130345199A1, “1-[M-CARBOXAMIDO(HETERO)ARYL-METHYL]-PIPERIDINE-4-CARBOXAMIDE DERIVATIVES” (Actelion Pharmaceuticals Ltd., priority 2012, published 2013).

One may read the EC50 as the concentration at which the effect is half-maximal.

T1 sequence (P25106 whole entry): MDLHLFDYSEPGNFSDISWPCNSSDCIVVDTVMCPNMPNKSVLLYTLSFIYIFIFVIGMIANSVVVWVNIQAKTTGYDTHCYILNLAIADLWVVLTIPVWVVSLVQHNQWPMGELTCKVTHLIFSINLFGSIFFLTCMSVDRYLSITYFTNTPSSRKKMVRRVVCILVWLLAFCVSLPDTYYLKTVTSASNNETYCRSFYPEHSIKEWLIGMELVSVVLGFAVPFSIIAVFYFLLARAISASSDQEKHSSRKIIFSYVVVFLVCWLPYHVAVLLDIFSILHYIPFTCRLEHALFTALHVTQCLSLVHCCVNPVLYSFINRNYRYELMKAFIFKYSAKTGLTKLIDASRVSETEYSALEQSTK

The assay has as its target T1, CXCR7 (Homo sapiens, UniProt P25106).
T1 construct: host or cells: CHO-K1 (PathHunter CXCR7 b-arrestin cell line, stably transfected)
As to the kind of experiment: PathHunter CHO-K1 CXCR7 b-arrestin assay (agonistic activity). Type of assay: cell-based. The conditions noted are these: PathHunter CHO-K1 CXCR7 b-arrestin cell line, 90 minutes at 37° C. The method, then:
The […] receptor and CXCR7 agonistic activities of the compounds of formula (I) are determined in accordance with the following experimental method.
The assay is using the PathHunter™ CHO-K1 CXCR7 b-arrestin cell line from DiscoverX. The system is based on the Enzyme Fragment Complementation Technology. Two complementing fragments of the b-galactosidase enzyme are expressed within stably transfected cells. The larger portion of b-gal, termed EA for Enzyme Acceptor, is fused to the C-terminus of b-arrestin 2. The smaller fragment, termed ProLink™ tag, is fused to CXCR7 at the C-terminus. Upon activation, b-arrestin is recruited which forces the interaction of ProLink and EA, allowing complementation of the two fragments of b-gal and the formation of a functional enzyme which is capable of hydrolysing the substrate and generating a chemiluminescent signal.
CHO-K1 CXCR7 b-arrestin cells are detached from culture dishes with a cell dissociation buffer (Invitrogen, #13151-014) and collected in growing medium (F12HAMS 90% (v/v)/FCS 10% (v/v), Penicilin/streptomycin 1% (v/v)). 5000 cells per well (in 20 μl) are seeded in a 384 well plate (white-walled, clear bottom; BD Falcon #353274). The plate is incubated at 37° C./5% CO2 for 24 hours. Medium is then replaced by […] (Invitrogen #31985) for 3 to 4 hours. Test compounds are dissolved at 10 mM in DMSO and serially diluted in DMSO to 200× of the final concentration for dose response curves. Compounds are then diluted 1:33.3 in HBSS1X. 5 μl/well of HBSS1X/20 mM HEPES/0.2% BSA are added to the assay plate followed by addition of 5 μl/well of diluted compounds. CXCL12 (Peprotech #300-28A) may be used as a reference agonist. The plate is incubated for 90 minutes at 37° C. 12 μl of detection reagent (Path Hunter Detection Kit, DiscoveRx, #93-0001) is transferred to the assay plate and to the plate is incubated for 1 hour at room temperature. Luminescent signal is read in a microplate reader (FLUOstar Optima, bmg). The calculated EC50 values may fluctuate depending on the daily cellular assay performance. Fluctuations of this kind are known to those skilled in the art.
“1-[3-(3-Fluoro-benzoylamino)-benzyl]-piperidine-4-carboxylic acid cyclohexylamide [Example 1.103]”: a half-maximal effect (EC50) was put at 6 nM.
Next, “1-{4-Chloro-3-[(2-phenyl-cyclopropanecarbonyl)-amino]-benzyl}-piperidine-4-carboxylic acid cyclohexylamide [Example 1.161]”: 26 nM.
Next, “5-Chloro-N-[4-chloro-3-(4-cyclopentylcarbamoyl-piperidin-1-ylmethyl)-phenyl]-nicotinamide [Example 1.227]”: 0.6 nM; `O=C(NC1CCCCC1)C1CCN(Cc2cccc(NC(=O)[C@@H]3C[C@@H]4CC[C@H]3C4)c2)CC1` (racemic) [Example 1.018, Rac-1-{3-[((1S,2R,4R)-Bicyclo[2.2.1]heptane-2-carbonyl)-amino]-benzyl}-piperidine-4-carboxylic acid cyclohexylamide]: 5 nM; `O=C(Nc1cccc(CN2CCC(C(=O)NC3CC4CCC3C4)CC2)c1)c1ccc(Cl)cc1` (racemic) [Example 2.008]: 6 nM.
Under `CC(NC(=O)C1CCN(Cc2cccc(NC(=O)c3ccc(Cl)cc3)c2)CC1)C1CCCCC1` (racemic) [Example 2.016] stands 134 nM; under `CC(NC(=O)C1CCN(Cc2cccc(NC(=O)c3ccc(Cl)cc3)c2)CC1)c1cccc2ccccc12` (racemic) [Example 2.018], 349 nM.
Take `O=C(Nc1cccc(CN2CCC(C(=O)NC3CCCc4ccccc43)CC2)c1)c1ccc(Cl)cc1` (racemic) [Example 2.019]: the midpoint of the response, the EC50, lay at 40 nM. Against the preceding molecule, the EC50 is about 8.7-fold lower.
For the molecule `O=C(Nc1cccc(CN2CCC(C(=O)NC3CCc4ccccc43)CC2)c1)c1ccc(Cl)cc1` (racemic) [Example 2.020], the EC50 amounted to 21 nM.
Next, `Cc1cncc(C(=O)Nc2cccc(CN3CCC(C(=O)N4CCCC4C)CC3)c2)c1` (racemic) [Example 2.050]: 26 nM.
Under `CC(C)C(CO)NC(=O)C1CCN(Cc2cccc(NC(=O)c3cccc(C(F)(F)F)n3)c2)CC1` (racemic) [Example 2.064] stands 87 nM; under `Cc1cncc(C(=O)Nc2cccc(CN3CCCC(C(=O)NCC4CC4)CC3)c2)c1` (racemic) [Example 2.084], 304 nM.
Under `CCC(C)(C)NC(=O)C1CCCN(Cc2cccc(NC(=O)c3cncc(C)c3)c2)CC1` (racemic) [Example 2.085] stands 68 nM; under `CC(C)(C)NC(=O)C1CCCN(Cc2cccc(NC(=O)c3cccc(C(F)(F)F)n3)c2)CC1` (racemic) [Example 2.086], 10 nM; under `CCC(C)NC(=O)C1CCCN(Cc2cccc(NC(=O)c3cccc(C(F)(F)F)n3)c2)CC1` (racemic) [Example 2.087], 6 nM.
The molecule `CCC(C)(C)NC(=O)C1CCCN(Cc2cccc(NC(=O)c3cccc(C(F)(F)F)n3)c2)CC1` (racemic) [Example 2.088] yielded an EC50 of 19 nM.
Next, `O=C(Nc1cccc(CN2CCCC(C(=O)NCC3CC3)CC2)c1)c1cccc(C(F)(F)F)n1` (racemic) [Example 2.089]: 36 nM; `O=C(Nc1cccc(CN2CCC(C(=O)NC3CCCCC3)CC2)c1)c1ccc(Cl)cc1` [Example 1.001, 1-[3-(4-Chloro-benzoylamino)-benzyl]-piperidine-4-carboxylic acid cyclohexylamide]: 2 nM.
With `O=C(Nc1cccc(CN2CCC(C(=O)NC3CCCCC3)CC2)c1)c1cccc(C(F)(F)F)n1` [Example 1.002, 6-Trifluoromethyl-pyridine-2-carboxylic acid [3-(4-cyclohexylcarbamoyl-piperidin-1-ylmethyl)-phenyl]-amide], a half-maximal response (EC50) required 1 nM.
As to `O=C(Nc1cccc(CN2CCC(C(=O)NC3CCCCC3)CC2)c1)c1cccnc1` [Example 1.003, N-[3-(4-Cyclohexylcarbamoyl-piperidin-1-ylmethyl)-phenyl]-nicotinamide], it took 23 nM to reach a half-maximal effect (EC50).
In turn, `O=C(Nc1cccc(CN2CCC(C(=O)NC3CCCC3)CC2)c1)c1ccc(Cl)cc1` [Example 2.001, 1-[3-(4-Chloro-benzoylamino)-benzyl]-piperidine-4-carboxylic acid cyclopentylamide] returned an EC50 of 0.9 nM.
Under `CNC(=O)C1CCN(Cc2cccc(NC(=O)c3ccc(Cl)cc3)c2)CC1` [Example 2.002] stands 3 nM; under `CC(C)NC(=O)C1CCN(Cc2cccc(NC(=O)c3ccc(Cl)cc3)c2)CC1` [Example 2.003], 0.8 nM; under `CC(C)(C)NC(=O)C1CCN(Cc2cccc(NC(=O)c3ccc(Cl)cc3)c2)CC1` [Example 2.004], 1 nM.
Next, `COCCNC(=O)C1CCN(Cc2cccc(NC(=O)c3ccc(Cl)cc3)c2)CC1` [Example 2.005]: 5 nM; `O=C(Nc1cccc(CN2CCC(C(=O)NC3CC3)CC2)c1)c1ccc(Cl)cc1` [Example 2.006]: 2 nM; `O=C(Nc1cccc(CN2CCC(C(=O)NC3CCC3)CC2)c1)c1ccc(Cl)cc1` [Example 2.007]: 1 nM.
Under `CCN(CC)C(=O)C1CCN(Cc2cccc(NC(=O)c3ccc(Cl)cc3)c2)CC1` [Example 2.009] stands 1 nM; under `O=C(Nc1cccc(CN2CCC(C(=O)NCC3CCCC3)CC2)c1)c1ccc(Cl)cc1` [Example 2.010], 4 nM; under `O=C(Nc1cccc(CN2CCC(C(=O)NC3CCC(O)CC3)CC2)c1)c1ccc(Cl)cc1` (stereo not shown) [Example 2.011], 241 nM.
Turning to `CC(C)(C)C1CCC(NC(=O)C2CCN(Cc3cccc(NC(=O)c4ccc(Cl)cc4)c3)CC2)CC1` (stereo not shown) [Example 2.012], a half-maximal effect (EC50) was put at 1050 nM.
Molecule `O=C(Nc1cccc(CN2CCC(C(=O)NC3CCC(F)(F)CC3)CC2)c1)c1ccc(Cl)cc1` [Example 2.014] had a half-maximal effective concentration (EC50) of 2 nM.
Consider `O=C(Nc1cccc(CN2CCC(C(=O)NCC3CCCCC3)CC2)c1)c1ccc(Cl)cc1` [Example 2.015], for which the response was half-maximal at 46 nM (EC50). This EC50 lies about 23-fold higher than the previous one.
Regarding `CC(C)(NC(=O)C1CCN(Cc2cccc(NC(=O)c3ccc(Cl)cc3)c2)CC1)c1ccccc1` [Example 2.017], a half-maximal effect (EC50) was put at 219 nM.
Under `O=C(Nc1cccc(CN2CCC(C(=O)NCc3ccncc3)CC2)c1)c1ccc(Cl)cc1` [Example 2.021] stands 218 nM; under `O=C(Nc1cccc(CN2CCC(C(=O)NCc3ccccn3)CC2)c1)c1ccc(Cl)cc1` [Example 2.022], 20 nM; under `O=C(Nc1cccc(CN2CCC(C(=O)NCc3cccnc3)CC2)c1)c1ccc(Cl)cc1` [Example 2.023], 162 nM.
As for `O=C(Nc1cccc(CN2CCC(C(=O)NCc3nccs3)CC2)c1)c1ccc(Cl)cc1` [Example 2.024], the 50% effective concentration (EC50) is 32 nM.
Under `O=C(Nc1cccc(CN2CCC(C(=O)NCc3ccccc3Cl)CC2)c1)c1ccc(Cl)cc1` [Example 2.025] stands 17 nM; under `COc1ccccc1CNC(=O)C1CCN(Cc2cccc(NC(=O)c3ccc(Cl)cc3)c2)CC1` [Example 2.026], 15 nM.
Next, `O=C(Nc1cccc(CN2CCC(C(=O)NCc3cccc(Cl)c3)CC2)c1)c1ccc(Cl)cc1` [Example 2.027]: 442 nM; `COc1cccc(CNC(=O)C2CCN(Cc3cccc(NC(=O)c4ccc(Cl)cc4)c3)CC2)c1` [Example 2.028]: 394 nM; `O=C(Nc1cccc(CN2CCC(C(=O)NCc3ccc(Cl)cc3)CC2)c1)c1ccc(Cl)cc1` [Example 2.029]: 433 nM.
In the case of `COc1ccc(CNC(=O)C2CCN(Cc3cccc(NC(=O)c4ccc(Cl)cc4)c3)CC2)cc1` [Example 2.030], the midpoint of the response, the EC50, lay at 832 nM. This EC50 is about 1.9-fold higher than that of the molecule before.
Under `O=C(Nc1cccc(CN2CCC(C(=O)NCC(F)(F)F)CC2)c1)c1ccc(Cl)cc1` [Example 2.031] stands 3 nM; under `O=C(Nc1cccc(CN2CCC(C(=O)NC3(CO)CCCC3)CC2)c1)c1ccc(Cl)cc1` [Example 2.032], 5 nM; under `O=C(Nc1cccc(CN2CCC(C(=O)NC3Cc4ccccc4C3)CC2)c1)c1ccc(Cl)cc1` [Example 2.033], 9 nM.
Next, `Cc1cc(CNC(=O)C2CCN(Cc3cccc(NC(=O)c4ccc(Cl)cc4)c3)CC2)c(C(F)(F)F)o1` [Example 2.034]: 533 nM.
Under `O=C(Nc1cccc(CN2CCC(C(=O)NCc3ccccc3)CC2)c1)c1ccc(Cl)cc1` [Example 2.035] stands 45 nM.
On to `Cc1cncc(C(=O)Nc2cccc(CN3CCC(C(=O)NC4CC4)CC3)c2)c1` [Example 2.037], for which the concentration for a half-maximal effect (EC50) came to 82 nM. This EC50 is about 1.8-fold higher than that of the molecule before.
Next, `Cc1cncc(C(=O)Nc2cccc(CN3CCC(C(=O)NC(C)C)CC3)c2)c1` [Example 2.038]: 12 nM; `Cc1cncc(C(=O)Nc2cccc(CN3CCC(C(=O)NC(C)(C)C)CC3)c2)c1` [Example 2.039]: 3 nM.
